Experimental data reported in paper PMC10044245, “Comparative Evaluation of Existing and Rationally Designed Novel Antimicrobial Peptides for Treatment of Skin and Soft Tissue Infections” (Antibiotics, 2023).
Converted amounts (≈) assume the structure as drawn. Where a SMILES comes first, the peptide text is derived from it.

Columns and labels:
[1] = system: C. acnes; test: microbe, parasite or virus in culture; format: cell-based, Cutibacterium acnes; conditions: for MIC: Cutibacterium acnes, 96-well plate, serial dilutions, 32 °C, 13–18 h, 200 rpm, OD 550 nm
Description: (§1) Quantification of the antimicrobial resistance against various AMPs was carried out by measuring the bacterial growth in the presence of peptides at serial dilutes in 96 well plates in a microplate (96-well plate) reader Infinite® M200 PRO Multimode Microplate Reader (Tecan, Maennedorf, Switzerland) according to our recent reports. All bacterial strains were incubated at 32 °C for 13–18 h at 200 rpm. Optical density measurements (λ = 550 nm) were taken automatically at 10 min intervals. Antimicrobial resistance activity was quantified as the minimum inhibitory concentration (MIC)—the lowest concentration of a peptide which prevents growth of bacterial cells.

[2] = system: P. aeruginosa; test: microbe, parasite or virus in culture; format: cell-based, Pseudomonas aeruginosa; conditions: for MIC: Pseudomonas aeruginosa, 96-well plate, serial dilutions, 32 °C, 13–18 h, 200 rpm, OD 550 nm
Description: as §1

[3] = system: BALB/c 3T3 murine fibroblast cell line; test: Cytotoxicity, neutral red uptake assay; format: cell-based; conditions: for IC50, viability of Balb/c 3T3 cells: 48 h
Excerpt: The BALB/c 3T3 murine fibroblast cell line was obtained from ATCC (American Type Culture Collection, Manassas, VA, USA). Primary human dermal fibroblasts were isolated by enzymatic digestion from skin biopsies in the Laboratory of Bioanalytical and Biodosimetry Methods, University of Latvia, in accordance with the approval of the Committee of Research Ethics of the Institute of Cardiology and Regenerative Medicine, University of Latvia. Cells were propagated in DMEM medium (Sigma, Irvine, UK), supplemented with 1% penicillin (100 U/mL)–streptomycin (100 μg/mL), and 10% calf serum (Sigma, St. Louis, MO, USA) for Balb/c 3T3 cell line and fetal bovine serum (Sigma, St. Louis, MO, USA) for primary dermal fibroblasts. All cultivations were performed in a humidified 5% CO2 atmosphere at 37 °C.
The cytotoxicity of the peptides was tested in the BALB/c3T3 cell line and primary dermal fibroblasts by the neutral red (NR) uptake assay. Cells were seeded in 96-well plates at a density of 5 × 10^3 cells per well. After 24 h of incubation, peptides in a concentration range of 3.9 to 500 μg/mL were added. Dilutions were made in a cell cultivation medium. Cultivation in the presence of extracts was performed for 48 h. Afterwards, plates were washed with phosphate-buffered saline (PBS) (Sigma, Irvine, UK), and a 25 µg/mL NR solution (Sigma, Irvine, UK) diluted in 5%-fetal-calf-serum-containing-media was added. After 3 h, incubation in a humidified 5% CO2 atmosphere at 37 °C, the plate was washed with PBS, and the NR taken up by viable cells was extracted using desorbing fixative (50% ethanol/1% acetic acid/49% water). Absorbance at 540 nm was measured using a microplate reader Tecan Infinite® 200 PRO (Tecan Group Ltd., Mannedorf, Switzerland). Cytotoxicity was expressed as a concentration-dependent reduction in the uptake of NR, compared to the untreated controls and calculated using the following equation: Cell viability (%)=Abs540nm(treatment)−Abs540nm(background)/Abs540nm(untreated control)−Abs540nm(background)×100%

[4] = system: E. faecium; test: microbe, parasite or virus in culture; format: cell-based, Enterococcus faecium
Description: as §1

[5] = system: E. coli; test: microbe, parasite or virus in culture; format: cell-based, Escherichia coli; conditions: for MIC: Escherichia coli, 96-well plate, serial dilutions, 32 °C, 13–18 h, 200 rpm, OD 550 nm, lowest concentration preventing growth
Description: as §1

[6] = system: K. pneumonia; test: microbe, parasite or virus in culture; format: cell-based, Klebsiella pneumoniae; conditions: for MIC: Klebsiella pneumoniae, 96-well plate, serial dilutions, 32 °C, 13–18 h, 200 rpm, OD 550 nm
Description: as §1

[7] = system: S. aureus; test: microbe, parasite or virus in culture; format: cell-based, Staphylococcus aureus; conditions: for MIC: Staphylococcus aureus, 96-well plate, serial dilutions, 32 °C, 13–18 h, 200 rpm, OD 550 nm
Description: as §1

## CC(C)[C@H](NC(=O)[C@H](Cc1ccc(O)cc1)NC(=O)[C@H](Cc1c[nH]c2ccccc12)NC(=O)[C@H](CS)NC(=O)[C@H](Cc1ccccc1)NC(=O)CN)C(=O)N[C@@H](CS)C(=O)N[C@@H](C)C(=O)N[C@@H](CCCNC(=N)N)C(=O)N[C@@H](CCCNC(=N)N)C(=O)N[C@@H](CC(N)=O)C(=O)NCC(=O)N[C@@H](C)C(=O)N[C@@H](CCCNC(=N)N)C(=O)N[C@H](C(=O)N[C@@H](CS)C(=O)N[C@@H](Cc1ccc(O)cc1)C(=O)N[C@@H](CCCNC(=N)N)C(=O)N[C@@H](CCCNC(=N)N)C(=O)N[C@@H](CS)C(=O)N[C@@H](CC(N)=O)C(=O)O)C(C)C [AA139, reference compound] (H-GFCWYVCARRNGARVCYRRCN-OH; N-terminus and C-terminus assumed)
[1]
  MIC C. acnes: 63.0 µg/mL (≈ 24.7 µM)
  Therapeutic Index C. acnes: 10.0
[2]
  MIC P. aeruginosa: 16.0 µg/mL (≈ 6.26 µM)
  Therapeutic Index P. aeruginosa: 39.3
[3]
  IC50, viability of Balb/c 3T3 cells: 627.5 µg/mL
[3]; Balb/c 3T3, at 500 μg/mL
  reduction of cell viability: 36%
[4]
  MIC E. faecium: 16.0 µg/mL (≈ 6.26 µM)
  Therapeutic Index E. faecium: 39.3
[5]
  MIC E. coli: 4.0 µg/mL (≈ 1.57 µM)
  Therapeutic Index E. coli: 157.0
[6]
  MIC K. pneumonia: 8.0 µg/mL (≈ 3.13 µM)
  Therapeutic Index K. pneumonia: 78.5
[7]
  MIC S. aureus: 8.0 µg/mL (≈ 3.13 µM)
  Therapeutic Index S. aureus: 78.5

## CC[C@H]1OC(=O)[C@H](C)[C@@H](O[C@H]2C[C@@](C)(OC)[C@@H](O)[C@H](C)O2)[C@H](C)[C@@H](O[C@@H]2O[C@H](C)C[C@H](N(C)C)[C@H]2O)[C@](C)(O)C[C@@H](C)CN(C)[C@H](C)[C@@H](O)[C@]1(C)O [Azythromycin, Azithromycin dihydrate, reference compound]
[6]
  MIC: 8 µg/mL
[7]
  MIC: 0.5 µg/mL

## O=C(OOC(=O)c1ccccc1)c1ccccc1 [Benzoyl peroxide, reference compound]
[1]
  MIC: 80 µg/mL (≈ 330 µM)
[5]
  MIC: 31 µg/mL (≈ 128 µM)
[7]
  MIC: 1250 µg/mL (≈ 5160 µM)

## [H]/N=C(\N/C(=N/[H])NCCCCCCNC(=N)NC(=N)Nc1ccc(Cl)cc1)Nc1ccc(Cl)cc1 [Chlorhexidine, chlorhexidine, reference compound]
[1]
  MIC: 1 µg/mL (≈ 1.98 µM)
[2]
  MIC: 1 µg/mL (≈ 1.98 µM)
[5]
  MIC: 16 µg/mL (≈ 31.7 µM)
[7]
  MIC: 1 µg/mL (≈ 1.98 µM)

## CC[C@H]1OC(=O)[C@H](C)[C@@H](O[C@H]2C[C@@](C)(OC)[C@@H](O)[C@H](C)O2)[C@H](C)[C@@H](O[C@@H]2O[C@H](C)C[C@H](N(C)C)[C@H]2O)[C@](C)(OC)C[C@@H](C)C(=O)[C@H](C)[C@@H](O)[C@]1(C)O [Claritromycin, clarithromycin, reference compound]
[6]
  MIC: 64 µg/mL (≈ 85.6 µM)
[7]
  MIC: 0.25 µg/mL (≈ 0.334 µM)

## CNC(C)C1CCC(N)C(OC2C(N)CC(N)C(OC3OCC(C)(O)C(NC)C3O)C2O)O1 (centres unmarked) [Gentamicin, gentamicin, reference compound]
[2]
  MIC: 0.25 µg/mL (≈ 0.523 µM)
[4]; Enterococcus faecium, 96-well plate, serial dilutions, 32 °C, 13–18 h, 200 rpm, OD 550 nm
  MIC: 1 µg/mL (≈ 2.09 µM)
[5]
  MIC: 1 µg/mL (≈ 2.09 µM)
[6]
  MIC: 0.25 µg/mL (≈ 0.523 µM)
[7]
  MIC: 0.25 µg/mL (≈ 0.523 µM)

## CC[C@H](C)[C@H](NC(=O)[C@H](CCCNC(=N)N)NC(=O)[C@H](CCCCN)NC(=O)[C@H](C)NC(=O)[C@@H](NC(=O)[C@@H](N)CCCCN)[C@@H](C)CC)C(=O)N[C@@H](Cc1c[nH]c2ccccc12)C(=O)N[C@@H](CCCCN)C(=O)N[C@@H](CCCNC(=N)N)C(=O)N[C@H](C(=O)N[C@@H](Cc1c[nH]c2ccccc12)C(=O)N[C@@H](CCCCN)C(=O)N[C@H](C(=O)N[C@@H](CC(C)C)C(=O)N[C@@H](CCCNC(=N)N)C(=O)N[C@@H](CCCNC(=N)N)C(=O)N[C@@H](CCCNC(=N)N)C(=O)O)[C@@H](C)CC)[C@@H](C)CC [PA13, reference compound] (H-KIAKRIWKRIWKILRRR-OH)
[1]
  MIC C. acnes: 16.0 µg/mL (≈ 6.89 µM)
  Therapeutic Index C. acnes: 16.4
[2]
  MIC P. aeruginosa: 16.0 µg/mL (≈ 6.89 µM)
  Therapeutic Index P. aeruginosa: 16.4
[3]
  IC50, viability of Balb/c 3T3 cells: 262 µg/mL
[4]
  MIC E. faecium: 4.0 µg/mL (≈ 1.72 µM)
  Therapeutic Index E. faecium: 65.5
[5]
  MIC E. coli: 31.0 µg/mL (≈ 13.4 µM)
  Therapeutic Index E. coli: 8.5
[6]
  MIC K. pneumonia: 16.0 µg/mL (≈ 6.89 µM)
  Therapeutic Index K. pneumonia: 16.4
[7]
  MIC S. aureus: 2.0 µg/mL (≈ 0.862 µM)
  Therapeutic Index S. aureus: 131.0

## CC[C@H](C)[C@H](N)C(=O)N[C@@H](C)C(=O)N[C@@H](CCCCN)C(=O)N[C@@H](CCCCN)C(=O)N[C@@H](Cc1ccccc1)C(=O)N[C@@H](Cc1c[nH]c2ccccc12)C(=O)N[C@@H](CCCCN)C(=O)N[C@@H](CCCCN)C(=O)N[C@@H](Cc1ccccc1)C(=O)N[C@@H](Cc1c[nH]c2ccccc12)C(=O)N[C@@H](CCCCN)C(=O)N[C@@H](Cc1ccccc1)C(=O)N[C@@H](Cc1c[nH]c2ccccc12)C(=O)N[C@@H](CCCCN)C(=O)N[C@H](C(=O)N[C@@H](Cc1ccccc1)C(=O)N[C@@H](CCCCN)C(=O)N[C@@H](CCCCN)C(=O)N[C@H](C(=O)N[C@@H](C)C(=O)O)[C@@H](C)CC)[C@@H](C)CC [Peptide R12] (H-IAKKFWKKFWKFWKIFKKIA-OH)
[1]
  MIC C. acnes: 0.5 µg/mL (≈ 0.187 µM)
  Therapeutic Index C. acnes: 32.0
[2]
  MIC P. aeruginosa: 4.0 µg/mL (≈ 1.5 µM)
  Therapeutic Index P. aeruginosa: 4.0
[3]
  IC50, viability of Balb/c 3T3 cells: 16.18 µg/mL
[4]
  MIC E. faecium: 16.0 µg/mL (≈ 5.99 µM)
  Therapeutic Index E. faecium: 1.0
[5]
  MIC E. coli: 8.0 µg/mL (≈ 2.99 µM)
  Therapeutic Index E. coli: 2.0
[6]
  MIC K. pneumonia: 31.0 µg/mL (≈ 11.6 µM)
  Therapeutic Index K. pneumonia: 0.5
[7]
  MIC S. aureus: 8.0 µg/mL (≈ 2.99 µM)
  Therapeutic Index S. aureus: 2.0

## CC[C@H](C)[C@H](N)C(=O)N[C@@H](C)C(=O)N[C@@H](CCCCN)C(=O)N[C@@H](CCCCN)C(=O)N[C@@H](Cc1ccccc1)C(=O)N[C@@H](Cc1c[nH]c2ccccc12)C(=O)N1CCC[C@H]1C(=O)N[C@@H](CCCCN)C(=O)N[C@@H](Cc1ccccc1)C(=O)N[C@@H](Cc1c[nH]c2ccccc12)C(=O)N[C@@H](CCCCN)C(=O)N[C@@H](Cc1ccccc1)C(=O)N[C@@H](Cc1c[nH]c2ccccc12)C(=O)N[C@@H](CCCCN)C(=O)N[C@H](C(=O)N[C@@H](Cc1ccccc1)C(=O)N[C@@H](CCCCN)C(=O)N[C@@H](CCCCN)C(=O)N[C@H](C(=O)N[C@@H](C)C(=O)O)[C@@H](C)CC)[C@@H](C)CC [Peptide R13] (H-IAKKFWPKFWKFWKIFKKIA-OH)
[1]
  MIC C. acnes: 0.3 µg/mL (≈ 0.114 µM)
  Therapeutic Index C. acnes: 263.3
[2]
  MIC P. aeruginosa: 4.0 µg/mL (≈ 1.51 µM)
  Therapeutic Index P. aeruginosa: 19.8
[3]
  IC50, viability of Balb/c 3T3 cells: 79.37 µg/mL
[4]
  MIC E. faecium: 16.0 µg/mL (≈ 6.06 µM)
  Therapeutic Index E. faecium: 4.9
[5]
  Therapeutic Index E. coli: 19.8
[6]
  MIC K. pneumonia: 8.0 µg/mL (≈ 3.03 µM)
  Therapeutic Index K. pneumonia: 9.9
[7]
  MIC S. aureus: 4.0 µg/mL (≈ 1.51 µM)
  Therapeutic Index S. aureus: 19.8
